{"source": "paper PMC5402304", "about": "“Oxoaporphine Metal Complexes (Co^II, Ni^II, Zn^II) with High Antitumor Activity by Inducing Mitochondria-Mediated Apoptosis and S-phase Arrest in HepG2” (Scientific Reports, 2017)", "key": {"MGC80-3": {"tested_on": "MGC80-3", "experiment": "MTT cytotoxicity assay, MGC80-3", "format": "cell-based, human", "procedure": "(§1) The in vitro cytotoxicity of OD, 1–3 and the corresponding metal salts were determined by MTT assay towards a panel of human tumor cells including HepG2, T-24, BEL-7404, MGC80-3, SK-OV-3/DDP and normal HL-7702 cells. As the positive control, cisplatin was dissolved at a concentration of 1 mM in 0.154 M NaCl[32].\n(§2) The human tumor cell lines (BEL-7404, HepG2, MGC80–3, T-24, SK-OV-3/DDP and HeLa cells) and the human normal liver cell line HL-7702 were obtained from Shanghai Cell Bank in Chinese Academy of Sciences. Cells were cultured in Dulbecco’s modified Eagle’s medium (DMEM) or RPMI-1640 medium, which supplemented with 10% fetal bovine serum (FBS) and 100 U/mL penicillin and streptomycin. Cells were cultured at 37 °C in a humidified atmosphere with 5% CO2/95% air. Tested compounds (2.0 mM) were prepared as DMSO stock solution before they were diluted to working concentrations by PBS buffer (containing 0.5% DMSO), while cisplatin dissolved in 0.9% sodium chloride solution was used as positive controls.\n(§3) Cells in their logarithmic phase were seeded in 96-well plates with 5.5 × 10^3/180 μL per well for 24 h. Then 20 μL of compounds at various concentrations were added to each well to achieve final concentrations of 1.25, 2.5, 5.0, 10.0, and 20.0 μM. All the cells were incubated with test compounds for another 48 h before MTT assay. Control wells contained media with 0.5% DMSO. After 48 h of cultivation, 10 μL of MTT (5 mg/mL in PBS) was added to each well, and cells were incubated at 37 °C for 6 h. The contents in the wells were pipetted out carefully, and the formazan crystals formed were dissolved in 100 μL of DMSO, and the absorbance was measured by enzyme labeling instrument with 490 nm/630 nm double wavelength measurement. The IC50 value was defined as a drug concentration killing 50% cells in comparison with untreated controls, which was calculated by the Bliss method (n = 5). All tests were repeated in at least three independent trials."}, "SK-OV-3/DDP": {"tested_on": "SK-OV-3/DDP", "experiment": "MTT cytotoxicity assay, SK-OV-3/DDP", "format": "cell-based, human", "details": "48 h", "procedure": "as §1, §2, §3"}, "T-24": {"tested_on": "T-24", "experiment": "MTT cytotoxicity assay, T-24", "format": "cell-based, human", "procedure": "as §1, §2, §3"}, "[1]": {"experiment": "Body weight of mice in the HepG2 xenograft model", "format": "in vivo, BALB/c nude mice", "details": "3.0 and 6.0 mg/kg ip daily, versus solvent control group", "procedure": "To further evaluate the in vivo antitumor efficacy of these complexes, 3 was selected to inhibit tumor growth in a HepG2 xenografts model. The mice were randomized into control group, 3-treated groups and positive control group (n = 6). Once the tumor had grown to an average volume of about 100 mm^3, two group of nude mice were injected intraperitoneally (ip) of 3 at a high dose (6.0 mg/kg) and a low (3.0 mg/kg) dose daily for 20 days, respectively. Cisplatin was used as positive control injected at 2.0 mg/kg every two days, while control group received solvents only.\nBALB/c nude mice (male, 17–20 g, 5–6 weeks old) were supplied by Guangxi Medical University Laboratory Animal Centre (Guangxi, China, approval no. SCXK 2014–0002 and SYXK 2014–0003). All of the experimental procedures were carried out according to the NIH Guidelines for the Care and Use of Laboratory Animals. Animal experiments were approved by the Animal Care and Use Committee of Guangxi Medical University. Animal were housed at IVC system (individual ventilated caging) with conditions of constant photoperiod (12 h light/12 h dark at 25−28 °C and 45−65% humidity). The xenograft tumor model was established in the same way as we reported before. […]\nThe tumor volumes and body weight were measured every 3 days, and tumor size was calculated as volume = (w^2l)/2, where w is the width and l is the length in mm of tumor[70]. […]"}, "HL-7702": {"tested_on": "HL-7702", "experiment": "MTT cytotoxicity assay, normal liver cells HL-7702", "format": "cell-based, human", "details": "48 h", "procedure": "as §1, §2, §3"}, "caspase-3": {"tested_on": "caspase-3", "experiment": "Caspase-3 activation by flow cytometry (CaspGLOW)", "format": "cell-based, human", "details": "HepG2, 1.0 μM, 24 h; control 4.2%", "procedure": "Caspase family is closely related to the cell apoptosis via the mitochondrial pathway, especially caspases-3, -8 and -9. To better understand the antitumor mechanisms, it needs to confirm whether caspase-3, -8 and -9 are activated when the tumor cells are treated with 1–3.\nThe measurement of caspase-3, -8 and -9’s activities was performed by CaspGLOW fluorescein active caspase-3, -8 and -9 staining kit. HepG2 cells were treated with 1 μM 1–3 for 24 h, harvested at a density of 1 × 10^6 cells/mL, and then suspended in 300 μL volume with PBS. To the suspension, 1 μL of caspase-3 inhibitor (FITC-DEVD-FMK), caspase-8 inhibitor (FITC-IETD-FMK) or caspase-9 inhibitor (FITC-LEHD-FMK) was consequently added and incubated for 1 h at 37 °C in 5% CO2 incubator. The cells were then examined by a FACSAria II flow cytometer equipped with a 488 nm argon laser. The results were represented as the percent change on the activity compared with the control."}}, "note": "“And” between values parts separate entries of the source, which are not always exact repeats. Equal values may be shown once."}
{"substance": "[Zn(OD)2(H2O)2] (ClO4)2 [Complex 3]", "values": [{"measurement": "inhibitive ratio", "setting": "MGC80-3; MGC80-3, 20 μmol/L, 48 h", "result": "67.30±0.21", "unit": "%"}, {"measurement": "IC50", "setting": "MGC80-3; MGC80-3, 48 h, MTT", "result": "4310 ± 310", "unit": "nM"}, {"measurement": "IC50", "setting": "SK-OV-3/DDP; SK-OV-3/DDP, MTT", "result": "570 ± 70", "unit": "nM"}, {"measurement": "inhibitive ratio", "setting": "SK-OV-3/DDP; SKOV-3/DDP, 20 μmol/L", "result": "70.80±1.69", "unit": "%"}, {"measurement": "inhibitive ratio", "setting": "T-24; T-24, 20 μmol/L, 48 h", "result": "84.16±0.76", "unit": "%"}, {"measurement": "IC50", "setting": "T-24; T-24, 48 h, MTT", "result": "510 ± 170", "unit": "nM"}, {"measurement": "in vivo toxic effect (loss in body weight)", "setting": "[1]", "result": "no significant loss in body weight"}, {"measurement": "inhibitive ratio", "setting": "HL-7702; HL-7702, 20 μmol/L", "result": "59.26±0.15", "unit": "%"}, {"measurement": "IC50", "setting": "HL-7702; HL-7702 normal liver cells, MTT", "result": "7130 ± 460", "unit": "nM"}, {"measurement": "proportion of activated caspase-3", "setting": "caspase-3", "result": "36.9% and 36.5%"}]}
